Molecular target: T1, human Farnesoid X Receptor (FXR) ligand binding domain (Homo sapiens, UniProt Q96RI1)
T1 construct: purchased Invitrogen
T1 sequence (Q96RI1 193-472 isoform Q96RI1-2): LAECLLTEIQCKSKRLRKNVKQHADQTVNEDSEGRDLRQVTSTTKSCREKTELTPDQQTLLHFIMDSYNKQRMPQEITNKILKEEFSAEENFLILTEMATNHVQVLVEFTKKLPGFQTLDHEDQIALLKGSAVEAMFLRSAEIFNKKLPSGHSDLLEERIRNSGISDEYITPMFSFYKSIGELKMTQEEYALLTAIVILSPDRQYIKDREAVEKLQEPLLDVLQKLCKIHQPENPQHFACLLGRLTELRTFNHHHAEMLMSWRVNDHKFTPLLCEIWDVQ
Test: Human GST-FXR LBD co-activator interaction assay (FXR HTRF assay)
Assay type: biochemical
Details: GST-FXR LBD with biotin-labeled SRC-1 peptide, FRET/HTRF, 2.5 hours at room temperature; response relative to GW4064; read-out: FXR coactivator interaction assay (HTRF) (EC50)
Description: Human GST-FXR LBD Co-Activator Interaction Assay.
The FXR HTRF assay is a biochemical assay measuring the interaction between FXR and a coactivator protein (SRC1). The ligand-induced interaction with a coactivator protein is a critical step in transcriptional activation by FXR. Thus, this is an assay designed to measure FXR agonist activity of compounds.
The ligand-dependent interaction between GST-FXR LBD and a peptide derived from Steroid Receptor Coactivator-1 (SRC-1) was monitored by Fluorescence Resonance Energy Transfer (FRET). […] Test compounds (in DMSO solution) and detection reagents (anti-GST-Cryptate labeled antibody and Streptavidin-XL665 conjugate; CisBio) were added in assay buffer containing 50 mM KF. Plates are incubated at room temperature in the dark for 2.5 hours before reading on an Envision (PerkinElmer) at 665 nm and 590 nm.
A negative control (without Streptavidin-XL665) was run with each assay and represented the background fluorescence. A reference FXR agonist, GW4064, was included in each experiment as positive control. The efficacy of each test compound was compared to that of GW4064. At each concentration, the relative activity of the test compound was expressed as Response %=(Rsample−RDMSO)/(Rpositive−RDMSO), where Rsample is the HTRF response (expressed in Delta F %) for the test compound, Rpositive is the maximal response for GW4064 at saturating concentrations, and RDMSO is the response for DMSO control. The EC50 values were calculated using GraphPad Prism (GraphPad Software) using non-linear regression curve fit (log(agonist) vs. response−variable slope (four parameters)).

EC50: 0.357 µM
SMILES: O=C(O)c1ccc2nc(N3CCC(OCc4c(CC5CCCCC5)noc4C4CC4)CC3)sc2c1 [Example 10-2, 2-(4-{[3-(cyclohexylmethyl)-5-cyclopropyl-1,2-oxazol-4-yl]methoxy}piperidin-1-yl)-1,3-benzothiazole-6-carboxylic acid]

— US20130261108A1, “COMPOSITIONS AND METHODS FOR MODULATING FARNESOID X RECEPTORS” (IRM LLC, priority 2010, published 2013)
